Experimental data from patent publication US20240345008A1 (Eth Zurich, priority 2021, published 2024).
No end group written: not given here.

How the values were obtained:
K-Ras protein = K-Ras protein (Homo sapiens, UniProt P01116); test: photo-CIDNP enhanced NMR ligand-target binding with spinlock, small molecules vs K-Ras protein; conditions: 500 μM ligand, 25 μM fluorescein, 100 μM K-Ras, 450 nm, 1 W, 2 s, spinlock 200 ms
[1] = target: PIN1 protein (peptidyl-prolyl cis-trans isomerase NIMA-interacting 1) (Homo sapiens, UniProt Q13526); test: photo-CIDNP enhanced NMR ligand-target binding, small molecules vs PIN1 protein; conditions: 100 μM ligand, 25 μM fluorescein, 50 μM PIN1 (ligand 3-4: 25 μM ligand, 15 μM fluorescein, 25 μM PIN1), 450 nm, 1 W, 2 s
PIN1 protein = PIN1 protein (Homo sapiens, UniProt Q13526); test: prior knowledge / verification of PIN1 binding (Potter et al. 2010; verification); conditions: method of verification not stated
PDZ protein domain [2] = test: photo-CIDNP enhanced NMR ligand-target binding, peptides vs PDZ protein domain (sample A vs B); conditions: 100 μM peptide, 25 μM fluorescein, PDZ 100 μM, 450 nm, 1 W, 4 s, no spin lock
PDZ protein domain [3] = test: photo-CIDNP NMR titration for dissociation constant of peptide ligand to PDZ protein domain; type: binding; conditions: 47 μM peptide, 25 μM fluorescein, series of PDZ concentrations and irradiation times, 450 nm, fit of equations (7) and (6)
PDZ protein domain [4] = test: photo-CIDNP enhanced 1H NMR titration, 47 µM peptide against a series of PDZ domain concentrations, fit of equations (7) and (6)

PIN1 protein (peptidyl-prolyl cis-trans isomerase NIMA-interacting 1), sequence (Q13526 whole entry, species assumed): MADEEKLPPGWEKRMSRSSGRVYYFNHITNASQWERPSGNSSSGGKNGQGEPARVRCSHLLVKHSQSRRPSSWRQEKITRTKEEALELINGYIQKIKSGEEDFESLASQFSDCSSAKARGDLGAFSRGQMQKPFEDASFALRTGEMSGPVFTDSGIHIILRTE
PIN1 protein, sequence (Q13526 whole entry, species assumed, the tested form may be a part): as the sequence (Q13526 whole entry, species assumed) above

5 N-(Furan-2-ylmethyl)-1H-benzimidazol-2-amine)-imidazole-4-carboxylic acid [ligand 4-1]
binding to the target K-Ras (signal modified in presence of target) (K-Ras protein): bound to the target K-Ras

Cc1cccc(-c2nc(C(=O)O)c(C)[nH]2)c1 [ligand 3-1, 5-methyl-2-(3-methylphenyl)-imidazole-4-carboxylic acid]
binding to the target PIN1 (signal modified in presence of target) [1]: bound to the target PIN1

Cc1ccc2[nH]cc(C(=O)O)c2c1 [ligand 3-2, 5-methyl-indole-3-carboxylic acid]
binding to the target PIN1 (signal modified in presence of target) [1]: bound to the target PIN1

N[C@@H](Cc1c[nH]c2ccccc12)C(=O)O [ligand 3-3, tryptophan]
binding to the target PIN1 (signal modified in presence of target) [1]: did not bind
verification of binding to PIN1 (PIN1 protein): verified to not bind to PIN1

O=C1NCCCc2c1oc1ccc(O)cc21 [ligand 3-4, 4-hydroxy-8-oxa-11-azatricyclo[7.5.0.0^2,7]tetradeca-1 (9),2,4,6-tetraen-10-one]
binding to the target PIN1 (signal modified in presence of target) [1]: bound to the target PIN1

COc1ccc(C)cc1NC(=O)Nn1cnnc1 [ligand 4-3, N-(2-methoxy-5-methylphenyl)-N′-4H-1,2,4-triazol-4-ylurea]
binding to the target K-Ras (signal modified in presence of target) (K-Ras protein): bound to the target K-Ras

O=C(O)Cc1c[nH]c2ccccc12 [ligand 4-4, indoleacetic acid]
binding to the target K-Ras (signal modified in presence of target) (K-Ras protein): did not bind

WEQLT (Peptide 3)
binding to the target PDZ (signal modified in presence of target) (PDZ protein domain [2]): did not bind

WVSAV [Peptide 1]
Kd (PDZ protein domain [3]): 7 µM
binding to the target PDZ (signal modified in presence of target) (PDZ protein domain [2]): binding to the target PDZ

WVSAV-NH2 [Peptide 4]
binding to the target PDZ (signal modified in presence of target) (PDZ protein domain [2]): did not bind

WVSAV [Peptide 1 (WVSAV)]
Kd (PDZ protein domain [4]): 7 µM
